Measured values taken from patent US4251524A (priority 1976, dated 1981).

tested on: Klebsiella pneumoniae; Enterobacter aerogenes sp.; Providencia; Serratia marcescens; E. coli BE; Salmonella sp.; Shigella sp.; Proteus, indole-negative and …; format: cell-based; settings: 100 μg/ml, Muller-Hinton nutrient broth with 0.1% glucose, 1×10^5 to 2×10^5 bacteria per ml, 24 hours; all listed cultures

SMILES	freedom from turbidity of bacterial cultures (indicates action)
CC1(C)S[C@@H]2[C@H](NC(=O)[C@H](NC(=O)N3CCN(N=Cc4ccccc4)C3=O)c3ccccc3)C(=O)N2[C@H]1C(=O)O [Example 1.3, sodium 6-{D-α-[(2-oxo-3-benzalimino-imidazolidin-1yl)-carbonylamino]phenylacetamido}-penicillanate]	free from turbidity
CC1(C)S[C@@H]2[C@H](NC(=O)[C@H](NC(=O)N3CCN(N=Cc4ccc(Cl)cc4)C3=O)c3ccccc3)C(=O)N2[C@H]1C(=O)O [Example 2.3, sodium 6-{D-α-[(2-oxo-3-{4-chloro}-benzalimino-imidazolidin-1-yl)-carbonylamino]-phenylacetamido}-penicillanate]	free from turbidity
CC1(C)S[C@@H]2[C@H](NC(=O)[C@H](NC(=O)N3CCN(N=Cc4ccc(Cl)cc4)C3=O)C3=CCC=CC3)C(=O)N2[C@H]1C(=O)O [Example 2.4, sodium 6-{D-α-[(2-oxo-3-{4-chloro}-benzalimino-imidazolidin-1-yl)-carbonylamino]-cyclohex-1,4-dien-1-yl-acetamido}-penicillanate]	free from turbidity
CC=CC=NN1CCN(C(=O)N[C@@H](C(=O)N[C@]2(OC)C(=O)N3C(C(=O)O)=C(COC(C)=O)CS[C@@H]32)c2ccccc2)C1=O [Example 36, 7-methoxy-7-{D-α-[(2-oxo-3-but-2-enylideneamino-imidazolidin-1-yl)-carbonylamino]-phenylacetamido}-3-acetoxymethyl-ceph-3-em-4-carboxylic acid]	free from turbidity
COC1(NC(=O)[C@H](NC(=O)N2CCN(N=Cc3ccco3)C2=O)c2ccccc2)C(=O)N2C(C(=O)O)=C(COC(C)=O)CS[C@@H]21 (some centres unmarked) [Example 36.5]	free from turbidity
